Here are results for eight compounds from patent publication EP4332093A1, “SALT CONTAINING PIPERAZINE POLYCYCLIC DERIVATIVE, CRYSTAL FORM THEREOF, PREPARATION METHOD THEREFOR, AND USE THEREOF” (Shanghai Hansoh Biomedical Co., Ltd., priority 2021, dated 2022).

pIC50: −log10 of the molar value. Some results are limits rather than exact numbers.

The target in series [1] is T1, D3 receptor (Homo sapiens, UniProt P35462).
T1 construct: expressed in transfected cells
Nature of the series: cAMP content in cells stably expressing D3 receptors (CHO-D3, forskolin, HTRF). Format: cell-based.

For series [2], the target named is T2, dopamine D3 receptor (Homo sapiens, UniProt P35462).
T2 construct: purchased PerkinElmer ES-173-M400UA
Nature of the series: Radioligand binding assay, dopamine D3 receptor ([3H]-methylspiperone). Particulars: Human Dopamine D3 Receptor membrane, [3H]-methylspiperone 0.5 nM. As to the method: Determination of the binding ability of the compounds of the present invention to dopamine D3 receptor
The objective of this test example is to determine the affinity of the compounds for dopamine D3 receptor.
Experimental buffer: 50 mM Tris-HCl pH 7.4, 10 mm MgCl2; washing liquor: 50 mM Tris-HCl pH 7.4, stored at 4°C; 0.5% PEI solution: 0.5 g PEI dissolved in 100 mL ddH2O, 4°C storage of spare.
(§1) 5 µL of the test compounds (0.005 nM to 100 nM, 10 concentrations in total) and 100 µL of buffer were added to a 96-well assay plate. 1 µL of cell membrane and 300 µL of buffer were added to each well, and the plate was shaken at 600 rpm for 5 minutes. 100 µL of a mixed solution of buffer and [^3H]-methylspiperone (final concentration of 0.5 nM) was added to the reaction system per well, and the plate was shaken at 600 rpm for 5 minutes and incubated at 27°C for 30 min. The UNIFII,TER-96 GF/B filter plate pre-incubated with 0.5% PEI for 1 h was washed twice with the buffer (1 mL/well). The cell membrane suspension was added to the […]-96 GF/B filter plate, washed 4 times, and incubated at 55°C for 10 min. 40 µL of ULTIMA GOLD was added to each well, and liquid scintillation counting was carried out.
(§2) The CPM (Counts per minute) values were determined by TopCount. […] The 10 concentrations of the compound were from 100 nM to 0.005 nM after 3-fold dilution of the reaction system. The percent inhibition rate and ten-point concentration data were fitted to the parametric nonlinear logistic equation by using GraphPad prism to calculate the IC50 values of the compound.

Series [3] deals with T3, 5-HT2A receptor (Homo sapiens, UniProt P28223). Nature of the series: Radioligand binding assay, 5-HT2A receptor ([3H]-Ketanserin). On the set-up: purchased PerkinElmer. To be noted: Human 5-HT2A Receptor membrane, [3H]-Ketanserin 2 nM; read-out: 5HT-2A Binding IC50. As to the method:
Determination of the binding ability of the compounds of the
present invention to 5-HT2A receptor
The objective of this test example is to determine the affinity of the compounds for 5-HT2A receptor.
Experimental buffer: 50 mM Tris-HCl pH 7.4, 4 mM CaCl2; washing liquor: 50 mM Tris-HCl pH 7.4, stored at 4°C; 0.5% PEI solution: 0.5 g PEI dissolved in 100 mL ddH2O, 4°C storage of spare.
as §1, with “plate. 1.5” for “plate. 1”, “and [^3H]-Ketanserin” for “and [^3H]-methylspiperone”, “of 2” for “of 0.5”, “The […]-96” for “The UNIFII,TER-96”
as §2

Series [4] has as its target T3, 5-HT2A receptor. Nature of the series: Calcium ion mobility in cells stably expressing 5-HT2A receptors (Flp-In-CHO-5HT2A, FLIPR). It counts as cell-based. On the set-up: expressed in transfected cells. To be noted: Flp-In-CHO-5HT2A stable pool, 5HT stimulation.
Series [5] can be described thus: Crystal form stability study of hydrochloride for 30 days. Format: physicochemical. Particulars: HPLC peak area normalization. As to the method:
The diluent 80% methanol solution was added to prepare a solution containing about 0.5 mg/mL hydrochloride. The mixture was sonicated for 30min to produce a clear solution. 1mL of the soluion was filtered and measured by HPLC. See "2.3.4" for the HPLC analysis method. The content of related substances was calculated according to the peak area normalization method, and the results are shown in Table 32 below. Table 32 HPLC data of hydrochloride in stability experimental conditions for 30 days

Series [6] in a line: Hygroscopicity study of salt (DVS). Format: physicochemical. Particulars: 25°C, 0-95-0% RH. The source says:
The hygroscopicity of a drug refers to the characteristics of the drug's ability or degree of water absorption at a certain temperature and humidity. […] (DVS) was used to characterize the ability of drugs to absorb water under different humidity conditions. The instrument parameters are detailed in the table below. [table]

Series [7] is described as follows: Solubility of hydrochloride and free base in different media (37°C, 24 hours, HPLC). It counts as physicochemical. To be noted: for solubility at 24 h: thermodynamic from solid. On the procedure: The glass bottle was shaken overnight on an electrothermal constant temperature shaking tank, and the temperature was set to 37°C. After 24 hours, the sample solution was filtered with a 0.45 µm mixed water fiber filter membrane, and the subsequent filtrate was taken to test its content by HPLC. HPLC detection methods are described in "Stability Study Conditions". Table 24 Solubility of hydrochloride and free base in different pH buffers

Series [8] in a line: Salt form quantification (HPLC-ELSD). Format: physicochemical. To be noted: HPLC-ELSD, external standard method. On the procedure: The number of acids binding in the salt form was quantified by HPLC-ELSD test. An appropriate amount of NaCl was weighed, and a series of linear solutions of different concentrations with the diluent acetonitrile-water (50:50) was prepared. […] The above linear solution and hydrochloride samples solution was taken to filter. [table]

Series [9] can be described thus: Stability study of salt (light, high temperature, high humidity; 5 and 10 days; HPLC related substances). It counts as physicochemical. The text has this: The chromatographic peak area normalization method was used to calculate the changes of related substances. [table]

T3 sequence (P28223 whole entry): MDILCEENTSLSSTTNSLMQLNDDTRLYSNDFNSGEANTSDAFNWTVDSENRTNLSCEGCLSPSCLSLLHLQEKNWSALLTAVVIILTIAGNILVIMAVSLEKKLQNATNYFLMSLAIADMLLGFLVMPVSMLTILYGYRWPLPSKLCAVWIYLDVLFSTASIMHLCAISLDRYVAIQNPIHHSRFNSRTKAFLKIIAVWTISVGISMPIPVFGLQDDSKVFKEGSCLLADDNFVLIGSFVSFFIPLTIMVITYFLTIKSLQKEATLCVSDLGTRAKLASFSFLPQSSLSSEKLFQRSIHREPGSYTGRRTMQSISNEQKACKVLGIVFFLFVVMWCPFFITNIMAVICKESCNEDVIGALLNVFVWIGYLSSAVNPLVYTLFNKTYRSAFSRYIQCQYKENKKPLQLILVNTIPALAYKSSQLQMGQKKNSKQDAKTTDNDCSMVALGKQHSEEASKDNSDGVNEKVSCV
T1 sequence (P35462 whole entry): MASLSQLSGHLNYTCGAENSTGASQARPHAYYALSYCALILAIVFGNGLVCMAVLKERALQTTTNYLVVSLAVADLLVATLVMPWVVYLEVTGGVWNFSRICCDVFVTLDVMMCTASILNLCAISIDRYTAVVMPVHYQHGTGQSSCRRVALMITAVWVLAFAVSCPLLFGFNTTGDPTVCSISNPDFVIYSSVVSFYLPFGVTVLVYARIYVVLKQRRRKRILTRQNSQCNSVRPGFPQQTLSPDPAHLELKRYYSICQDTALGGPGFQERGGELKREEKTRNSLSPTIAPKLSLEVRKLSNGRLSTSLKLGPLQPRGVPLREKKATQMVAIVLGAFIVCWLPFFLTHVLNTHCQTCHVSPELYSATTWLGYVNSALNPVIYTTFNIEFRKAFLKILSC
T2 sequence (P35462 whole entry): as above

Usually EC50 stands for the concentration at which the effect is half-maximal. Low readings indicate greater potency, high ones weaker potency. One may read the pIC50 as −log10 of the IC50, conventionally taken in molar units. By IC50 is commonly meant the point on the concentration scale where inhibition reaches its midpoint. With `Cc1cc(C(=O)NC2CC(CCN3CCN(c4cccc(Cl)c4Cl)CC3)C2)on1` (stereo not shown) [Example 14A], a half-maximal effect in series [1] (EC50) was put at 0.9 nM. For the same compound, the pIC50 in series [2] is 9.47; in [3], 8.87. In series [4], the IC50 amounted to 4.37 nM.

With `CN(C(=O)NC1CC(CCN2CCN(c3cccc(Cl)c3Cl)CC2)C1)C1CC1` (stereo not shown) [Example 20, 1-Cyclopropyl-3-(3-(2-(4-(2,3-dichlorophenyl)piperazin-1-yl)ethyl)cyclobutyl)-1-me thylurea], a half-maximal response in series [1] (EC50) required 1 nM. Also, the pIC50 was 8.70 in series [2] and 7.72 in series [3]. Also, in [4], the IC50 came out at 11.6 nM.

What is called solubility is how much of the substance goes into solution per volume. Low values mean a poorly soluble substance, high ones a readily soluble substance. On to `Cl.O=C(N[C@H]1C[C@H](CCN2CCN(c3cccc(Cl)c3Cl)CC2)C1)c1ncco1` [hydrochloride], for which the “Area% at RRT 1.00” value in series [5] (0d) turned out to be 99.44%; in [5] (GS-30d), 99.43%; in [5] (GW-30d), 99.51%; in series [5] (GZ-30d), 99.43%; in series [5] (WS-30d), 99.46%. The “Area% at RRT 1.07” value in series [5] (0d) is recorded as 0.07%; in series [5] (GS-30d) it was 0.11%; in [5] (GW-30d) it was 0.08%; in series [5] (GZ-30d), 0.09%; in series [5] (WS-30d), 0.09%. In addition, the “Area% at RRT 1.93” value in series [5] (0d) came out at 0.42%; in [5] (GS-30d) it was 0.39%; in series [5] (GW-30d) it was 0.41%; in series [5] (GZ-30d), 0.41%; in series [5] (WS-30d), 0.38%. Further, the “Area% at RRT 2.43” value in series [5] (0d) came to 0.07%; in series [5] (GS-30d), 0.07%; in [5] (GZ-30d) it was 0.08%; in series [5] (WS-30d) it was 0.07%. The “hygroscopicity (DVS)” value in [6] is given as “slightly hygroscopic”. Moreover, the “solubility in different pH buffers” value in series [7] is “pH-dependent, with better solubility under acidic conditions, poor solubility under neutral or alkaline conditions”. Besides, the solubility at 24 h in [7] (aqueous buffer, Buffer pH 3) is above 1000 µg/mL; in series [7] (aqueous buffer, Buffer pH 4), above 1000 µg/mL; in series [7] (aqueous buffer, Buffer pH 5) it was 863 µg/mL; in [7] (aqueous buffer, Buffer pH 6), 187 µg/mL; in [7] (aqueous buffer, Buffer pH 7), 14 µg/mL; in series [7] (aqueous buffer, Buffer pH 8) it was 1 µg/mL. The solubility at 24 h in [7] (fassgf or other biorelevant, FaSSCoF) is above 1000 µg/mL; in series [7] (fassgf or other biorelevant, FaSSGF) it was 117 µg/mL; in [7] (fassgf or other biorelevant, FeSSCoF) it was above 1000 µg/mL; in [7] (simulated gastric fluid, Buffer pH 1) it was above 1000 µg/mL; in series [7] (simulated gastric fluid, Buffer pH 2) it was above 1000 µg/mL; in series [7] (FaSSIF) it was above 1000 µg/mL. For the same compound, the solubility at 24 h in series [7] (FeSSIF) was above 1000 µg/mL; in [7] (water, H2O), above 1000 µg/mL. In series [7] (water), the “solubility in water compared with free base” value is reported as “greatly improved”. Besides, the figures for the “Determination of Cl-percentage content in hydrochloride” value in series [8] (Batch 1) and in [8] (Batch 2) were 7.82% and 7.90%, respectively. Besides, in [9], the “stability (growth of impurities)” value is reported as “good stability”.

`Cc1cnoc1C(=O)N[C@H]1C[C@H](CCN2CCN(c3cccc(Cl)c3Cl)CC2)C1` [Example 13A, N-(Trans-3-(2-(4-(2,3-dichlorophenyl)piperazin-1-yl)ethyl)cyclobutyl)-4-methylisox azole-5-carboxamide] came in with an EC50 in [1] of 1.1 nM. For the same compound, the pIC50 is 8.87 in [2] and 8.74 in series [3]. Also, the IC50 in [4] turned out to be 11.7 nM.

As to `Cc1nc(C(=O)N[C@H]2C[C@H](CCN3CCN(c4cccc(Cl)c4Cl)CC3)C2)co1` [Example 18A, N-(Trans-3-(2-(4-(2,3-dichlorophenyl)piperazin-1-yl)ethyl)cyclobutyl)-2-methyloxazole-4-carboxamide], in series [1], the EC50 is 1.4 nM. Besides, the results for the pIC50 in series [2] and in series [3] were 9.38 and 8.86, respectively. Further, the IC50 in series [4] is 6.44 nM.

In turn, `O=C(N[C@H]1C[C@H](CCN2CCN(c3cccc(Cl)c3Cl)CC2)C1)c1ccno1` [Example 15A, N-(Trans-3-(2-(4-(2,3-dichlorophenyl)piperazin-1-yl)ethyl)cyclobutyl)isoxazole-5-ca rboxamide] gave an EC50 in series [1] of 0.7 nM. Moreover, the pIC50 in series [2] is 9.51; in [3], 9.01. Besides, in [4], the IC50 came out at 3.14 nM.

Turning to `Cc1ncc(C(=O)NC2CC(CCN3CCN(c4cccc(Cl)c4Cl)CC3)C2)o1` (stereo not shown) [Example 16A], in [1], a half-maximal response (EC50) required 1.7 nM. The pIC50 was 9.48 in [2] and 8.74 in series [3]. In [4], the IC50 came to 4.28 nM.

`CC(C)(O)C(=O)NC1CC(CCN2CCN(c3cccc(Cl)c3Cl)CC2)C1` (stereo not shown) [Example 4A] yielded an EC50 in series [1] of 0.4 nM. For the same compound, the results for the pIC50 in [2] and in [3] were 9.02 and 7.38, respectively. Also, the IC50 in [4] is 39 nM.
